The subject of one data set is NCI-H358 cells. Nature of the data set: Cell viability assay, NCI-H358. It is filed as cell-based, human. To be noted: Homo sapiens, NCI-H358, 72 hours, Cell Counting Kit-8, read-out: G12C IC50. In a few lines: (§1)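 Cells were plated at 5,000 (NCI-H358) or 2,000 (AGS, SW620) per well and incubated overnight. They were then treated with compound in 0.5% DMSO for 72 h. Viability was read with CCK-8 as OD450 minus OD650 after 2 h, and IC50 came from a 4-parameter sigmoidal fit.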

Data set [1] has as its target KRAS G12D binding to BRAF (Homo sapiens (Human), UniProt P01116+P62937, G12D). Nature of the data set: KRAS-BRAF with CYPA (50 nM) interaction assay (TR-FRET), G12D. To be noted: GMPPNP loaded 6His-KRAS, GST-BRAF RBD. In a few lines:
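Buffer 25 mM HEPES pH 7.4, 100 mM NaCl, 5 mM MgCl2, 10 μM GMPPNP, 0.1% BSA; final 50 nM tagless CYPA, 6.25 nM GMPPNP-loaded 6His-KRAS mutant, 1 nM GST-BRAF RBD. Compounds 16-point 3-fold series from 10 μM, 3 h; anti-6His-XL665/anti-GST-Tb added, 1.5 h; 665/615 nm ratio decrease versus DMSO.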
(Time-resolved FRET reads energy transfer from a long-lived donor to a nearby acceptor.)

Another data set deals with KRAS G12V in SW620. Nature of the data set: pERK inhibition assay, SW620. It is filed as cell-based, human. To be noted: Homo sapiens, SW-620, SW620 cells, 4 hours incubation. In a few lines:
(§2)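 NCI-H358, AGS and SW620 cells in RPMI-1640/10% FBS were plated overnight, then exposed to compound (0.5% DMSO final) for 4 h. After fixation and permeabilization, phospho-ERK was quantified by in-cell ELISA (HRP secondary, TMB, OD450); IC50 from a 4-parameter sigmoidal fit.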

Data set [2] deals with KRAS G12C in NCI-H358 cells. Nature of the data set: pERK inhibition assay, NCI-H358. To be noted: Homo sapiens, 4 hours incubation. It is filed as cell-based, human. The gist of the method:
as §2

In the next data set the test system is SW620 cells. Nature of the data set: Cell viability assay, SW620. It is filed as cell-based, human. The settings on record: Homo sapiens, SW-620, SW620, 72 hours, Cell Counting Kit-8, read-out: G12V IC50. The gist of the method: as §1
For orientation: Tetrazolium dyes change colour on reduction, which living cells bring about.

Data set [3] in a line: GSH reaction rates (inherent GSH reactivity). It is filed as in vitro ADME. To be noted: 1 μM compound, 5 mM GSH, 37° C. The gist of the method: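 Compounds at 1 μM were incubated at 37° C with or without 5 mM GSH in 100 mM potassium phosphate pH 7.4 for 0-6 h. Samples were quenched with acetonitrile/N-ethylmaleimide and the remaining compound quantified by LC-MS/MS to derive T1/2.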

This is an account of results in patent publication US20250163072A1, “MACROCYCLIC COMPOUNDS FOR THE TREATMENT OF CANCER” (Hoffmann-La Roche Inc., priority 2021, published 2025).

Sequence of KRAS G12D binding to BRAF (P01116-2 other isoform, or with tags, fused parts or gaps G12D): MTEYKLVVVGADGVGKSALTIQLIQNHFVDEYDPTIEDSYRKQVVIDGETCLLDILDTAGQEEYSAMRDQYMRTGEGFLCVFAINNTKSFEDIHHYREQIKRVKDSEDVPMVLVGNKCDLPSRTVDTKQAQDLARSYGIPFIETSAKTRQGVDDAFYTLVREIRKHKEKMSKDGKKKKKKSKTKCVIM
Sequence of KRAS G12D binding to BRAF (P62937 whole entry): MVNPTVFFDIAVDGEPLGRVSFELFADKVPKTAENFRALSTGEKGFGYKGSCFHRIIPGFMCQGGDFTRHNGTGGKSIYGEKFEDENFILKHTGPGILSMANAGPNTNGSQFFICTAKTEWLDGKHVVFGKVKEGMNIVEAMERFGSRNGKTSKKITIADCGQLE

A word on the IC50: it is the concentration that gives 50% inhibition. Regarding `CO[C@@H](C)c1ncc(N2CCOCC2)cc1-c1c2c3cc(ccc3n1CC(F)(F)F)-c1csc(n1)C[C@H](NC(=O)[C@H](C(C)C)N(C)C(=O)[C@H]1CCN(C(=O)[C@H](F)Cl)C1)C(=O)N1CCC[C@H](N1)C(=O)OCC(C)(C)C2` (atropisomer, axis not shown; (M)) [Example 25, (3S)-1-[(2R)-2-chloro-2-fluoro-acetyl]-N-[(1S)-1-[[(7S,13S)-(20M)-20-[2-[(1S)-1-methoxyethyl]-5-morpholino-3-pyridyl]-17,17-dimethyl-8,14-dioxo-21-(2,2,2-trifluoroethyl)-15-oxa-4-thia-9,21,27,28-tetrazapentacyclo[17.5.2.12,5.19,13.022,26]octacosa-1(25),2,5(28),19,22(26),23-hexaen-7-yl]carbamoyl]-2-methyl-propyl]-N-methyl-pyrrolidine-3-carboxamide], the concentration for half-maximal inhibition (IC50) with NCI-H358 cells was under 0.6 nM; in data set [1] it was over 10000 nM; in the data set on KRAS G12V in SW620, 3 nM; in data set [2], 1 nM; in the data set on SW620 cells it was 6 nM. Also, the “Remaining at 6 hr in GSH (%)” value in data set [3] (pH 7.4, 6 hr) worked out at 100%. Further, the “T1/2(hour) in GSH” value in data set [3] (potassium phosphate buffer pH 7.4) is given as “stable (If % depletion after 6 hour incubation is less than 20%, compounds were reported as stable)”.
